pIC50: −log10 of the molar value.
Columns and labels:
Tyk2 = target: T1, Tyk2 (Homo sapiens, UniProt P29597); test: Kinobeads assay with antibody detection, TYK2; type: binding; conditions: mixed Molt4/Ramos lysate, read-out: Tyk2 inhibition value (IC50)
T1 construct: endogenous in cells; host or cells: mixed Molt4/Ramos cell lysate (1:2)
Description: (§1) The compounds of the present invention as described in the previous examples were tested in a Kinobeads™ assay as described for ZAP-70 (WO-A 2007/137867). Briefly, test compounds (at various concentrations) and the affinity matrix with the immobilized aminopyrido-pyrimidine ligand 24 were added to cell lysate aliquots and allowed to bind to the proteins in the lysate sample. After the incubation time the beads with captured proteins were separated from the lysate. Bound proteins were then eluted and the presence of JAK1; JAK2, JAK3 and TYK2 was detected and quantified using specific antibodies in a dot blot procedure and the Odyssey infrared detection system. Dose response curves for individual kinases were generated and IC50 values calculated. Kinobeads™ assays for ZAP-70 (WO-A 2007/137867) and for kinase selectivity profiling (WO-A 2006/134056) have been previously described.
(§2) 5×DP buffer: 250 mM Tris-HCl pH 7.4, 25% Glycerol, 7.5 mM MgCl2, 750 mM NaCl, 5 mM Na3VO4; filter the 5×DP buffer through a 0.22 μm filter and store in aliquot at −80° C. The 5×DP buffer is diluted with H2O to 1×DP buffer containing 1 mM DTT and 25 mM NaF.
(§3) Stock solutions of test compounds were prepared in DMSO. In a 96 well plate 30 μL solution of diluted test compounds at 5 mM in DMSO were prepared. Starting with this solution a 1:3 dilution series (9 steps) was prepared. For control experiments (no test compound) a buffer containing 2% DMSO was used.
(§4) Molt4 cells (ATCC catalogue number CRL-1582) and Ramos cells (ATCC catalogue number CRL-1596) were grown in 1 L Spinner flasks (Integra Biosciences, #182101) in suspension in RPMI 1640 medium (Invitrogen, #21875-034) supplemented with 10% Fetal Bovine Serum (Invitrogen) at a density between 0.15×10^6 and 1.2×10^6 cells/mL. Cells were harvested by centrifugation, washed once with 1×PBS buffer (Invitrogen, #14190-094) and cell pellets were frozen in liquid nitrogen and subsequently stored at −80° C. Cells were homogenized in a Potter S homogenizer in lysis buffer: 50 mM Tris-HCl, 0.8% NP40, 5% glycerol, 150 mM NaCl, 1.5 mM MgCl2, 25 mM NaF, 1 mM sodium vanadate, 1 mM DTT, pH 7.5. One complete EDTA-free tablet (protease inhibitor cocktail, Roche Diagnostics, 1873580) per 25 mL buffer was added. The material was dounced 10 times using a mechanized POTTER S, transferred to 50 mL falcon tubes, incubated for 30 minutes on ice and spun down for 10 minutes at 20,000 g at 4° C. (10,000 rpm in Sorvall SLA600, precooled). The supernatant was transferred to an ultracentrifuge (UZ)-polycarbonate tube (Beckmann, 355654) and spun for 1 hour at 100.000 g at 4° C. (33.500 rpm in Ti50.2, precooled). The supernatant was transferred again to a fresh 50 mL falcon tube, the protein concentration was determined by a Bradford assay (BioRad) and samples containing 50 mg of protein per aliquot were prepared. The samples were immediately used for experiments or frozen in liquid nitrogen and stored frozen at −80° C.
(§5) Cell lysate (approximately 50 mg protein per plate) was thawed in a water bath at room temperature and then stored on ice. To the thawed cell lysate 1×DP 0.8% NP40 buffer containing protease inhibitors (1 tablet for 25 mL buffer; EDTA-free protease inhibitor cocktail; Roche. Diagnostics 1873580) was added in order to reach a final protein concentration of 10 mg/mL total protein. The diluted cell lysate was stored on ice. Mixed Molt4Ramos lysate was prepared by combining one volume of Molt4 lysate and two volumes of Ramos lysate (ratio 1:2).
(§6) Plates were sealed and incubated for 3 hours in a cold room on a plate shaker (Heidolph tiramax 1000) at 750 rpm. Afterwards the plate was washed 3 times with 230 μL washing buffer (1×DP 0.4% NP40). The filter plate was placed on top of a collection plate (Greiner bio-one, PP-microplate 96 well V-shape, 65120) and the beads were then eluted with 20 μL of sample buffer (100 mM Tris, pH 7.4, 4% SDS, 0.00025% bromophenol blue, 20% glycerol, 50 mM DTT). […]

[1] = tested on: STAT5 phosphorylation in IL-2 stimulated YT cells; test: pSTAT5 cell assay (IL-2 stimulated YT cells, AlphaScreen); type: cell-based; conditions: IL-2 stimulated human YT cells, 1 h compound incubation
Source text: STAT5 phosphorylation represents one of the proximal events in the signalling cascade downstream of JAK3 activation. Therefore STAT5 phosphorylation is an appropriate readout to assess the mechanistic effect of JAK3 inhibition. Stimulation of human YT cells, an NK-like cell line, with interleukin-2 (IL-2) results in phosphorylation of STATS at tyrosine residue 694 (Tyr694) that can be quantitatively measured by immunodetection with specific antibodies and an appropriate detection method, in this case AlphaScreen assay technology.
Human YT cells were grown in RPMI medium (Lonza, BE12-167) with 2 mM L-Glutamine (Invitrogen, 25030-024) and 10% heat-inactivated FBS (Invitrogen, 10106-169) and kept in a humidified incubator (37° C., 5% CO2). Cells were harvested by centrifugation, washed once with HBSS (Invitrogen, 14180-046), resuspended in HESS at 1.5×10^6 cells/ml and 0.9×10^4 cells were seeded in 6 μl per well in a 96 well White plate (PerkinElmer, 6005569).
Test compounds were dissolved in DMSO and a 1:3 dilution series (9 steps) was prepared. To generate a dose response curve, […] of fourfold concentrated compound in 4% DMSO/HBSS were added to each cell sample in the 96 well plate resulting in a final DMSO concentration of 1% DMSO. Cells were incubated for one hour in a humidified incubator (37° C., 5% CO2). To each well 3 μl of a fourfold concentrated IL-2 solution (Recombinant human IL-2, Peprotech 200-02; 120 nM solution in HBSS) was added and incubated for 30 minutes at room temperature. Cells were lysed by adding 3 μl of 5× lysis buffer (SureFire lysis buffer; Perkin Elmer, TGRS5S10K) and incubated for 10 minutes at room temperature with gentle shaking.
For signal detection by AlphaScreen® technology the SureFire phospho-STAT5 (Tyr694Tyr699) kit was used according to instructions provided by the manufacturer (Perkin Elmer, TGRS5S10K). Acceptor beads were added as recommended by the manufacturer (Reactivation buffer/Activation buffer/Acceptor beads at a ratio of 40:10:1) and incubated at room temperature for 1.5 hours with gentle shaking. Then donor beads were added as recommended (Dilution buffer/Donor beads at a ratio of 20:1) and incubated at room temperature for 1.5 hours with gentle shaking. Plates were read on an Envision instrument (Perkin Elmer) with the AlphaScreen protocol. Data were analysed in BioAssay using the nonlinear regression for a sigmoidal dose-response with a variable slope.

JAK2 = target: T2, JAK2 (Homo sapiens, UniProt O60674); test: Kinobeads assay with antibody detection, JAK2; type: binding; conditions: mixed Molt4/Ramos lysate, read-out: JAK2 inhibition value (IC50)
T2 construct: endogenous in cells; host or cells: mixed Molt4/Ramos cell lysate (1:2)
T2 sequence (O60674 whole entry): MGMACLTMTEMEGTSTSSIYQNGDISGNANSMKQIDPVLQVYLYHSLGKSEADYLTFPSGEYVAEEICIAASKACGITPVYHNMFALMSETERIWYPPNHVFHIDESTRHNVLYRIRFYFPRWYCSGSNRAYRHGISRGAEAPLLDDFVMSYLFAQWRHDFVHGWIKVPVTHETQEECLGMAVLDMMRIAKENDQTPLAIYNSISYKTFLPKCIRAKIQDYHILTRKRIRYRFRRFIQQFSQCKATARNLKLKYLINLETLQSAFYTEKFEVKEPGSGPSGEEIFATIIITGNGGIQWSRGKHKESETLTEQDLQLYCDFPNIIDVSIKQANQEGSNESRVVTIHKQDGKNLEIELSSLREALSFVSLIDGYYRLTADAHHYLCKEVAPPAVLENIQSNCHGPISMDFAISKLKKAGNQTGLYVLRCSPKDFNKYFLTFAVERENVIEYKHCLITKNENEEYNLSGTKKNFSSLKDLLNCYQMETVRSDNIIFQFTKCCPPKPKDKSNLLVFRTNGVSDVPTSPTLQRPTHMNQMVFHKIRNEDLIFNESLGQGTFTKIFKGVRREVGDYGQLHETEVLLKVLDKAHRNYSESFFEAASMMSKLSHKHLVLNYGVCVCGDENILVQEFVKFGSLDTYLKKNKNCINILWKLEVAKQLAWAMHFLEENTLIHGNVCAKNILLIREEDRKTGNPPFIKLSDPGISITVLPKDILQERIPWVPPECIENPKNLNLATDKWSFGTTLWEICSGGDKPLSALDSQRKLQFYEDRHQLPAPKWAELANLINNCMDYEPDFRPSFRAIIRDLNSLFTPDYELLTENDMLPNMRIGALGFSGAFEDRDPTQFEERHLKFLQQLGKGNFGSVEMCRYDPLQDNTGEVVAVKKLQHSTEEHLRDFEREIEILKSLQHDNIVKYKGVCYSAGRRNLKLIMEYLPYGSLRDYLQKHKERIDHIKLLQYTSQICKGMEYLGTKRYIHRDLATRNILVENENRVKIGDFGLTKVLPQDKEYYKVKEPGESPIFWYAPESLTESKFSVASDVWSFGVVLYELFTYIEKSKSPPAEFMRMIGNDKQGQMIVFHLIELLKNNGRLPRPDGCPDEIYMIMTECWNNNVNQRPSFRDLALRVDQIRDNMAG
Description: as §1, §2, §3, §4, §5, §6

T1 sequence (P29597 whole entry): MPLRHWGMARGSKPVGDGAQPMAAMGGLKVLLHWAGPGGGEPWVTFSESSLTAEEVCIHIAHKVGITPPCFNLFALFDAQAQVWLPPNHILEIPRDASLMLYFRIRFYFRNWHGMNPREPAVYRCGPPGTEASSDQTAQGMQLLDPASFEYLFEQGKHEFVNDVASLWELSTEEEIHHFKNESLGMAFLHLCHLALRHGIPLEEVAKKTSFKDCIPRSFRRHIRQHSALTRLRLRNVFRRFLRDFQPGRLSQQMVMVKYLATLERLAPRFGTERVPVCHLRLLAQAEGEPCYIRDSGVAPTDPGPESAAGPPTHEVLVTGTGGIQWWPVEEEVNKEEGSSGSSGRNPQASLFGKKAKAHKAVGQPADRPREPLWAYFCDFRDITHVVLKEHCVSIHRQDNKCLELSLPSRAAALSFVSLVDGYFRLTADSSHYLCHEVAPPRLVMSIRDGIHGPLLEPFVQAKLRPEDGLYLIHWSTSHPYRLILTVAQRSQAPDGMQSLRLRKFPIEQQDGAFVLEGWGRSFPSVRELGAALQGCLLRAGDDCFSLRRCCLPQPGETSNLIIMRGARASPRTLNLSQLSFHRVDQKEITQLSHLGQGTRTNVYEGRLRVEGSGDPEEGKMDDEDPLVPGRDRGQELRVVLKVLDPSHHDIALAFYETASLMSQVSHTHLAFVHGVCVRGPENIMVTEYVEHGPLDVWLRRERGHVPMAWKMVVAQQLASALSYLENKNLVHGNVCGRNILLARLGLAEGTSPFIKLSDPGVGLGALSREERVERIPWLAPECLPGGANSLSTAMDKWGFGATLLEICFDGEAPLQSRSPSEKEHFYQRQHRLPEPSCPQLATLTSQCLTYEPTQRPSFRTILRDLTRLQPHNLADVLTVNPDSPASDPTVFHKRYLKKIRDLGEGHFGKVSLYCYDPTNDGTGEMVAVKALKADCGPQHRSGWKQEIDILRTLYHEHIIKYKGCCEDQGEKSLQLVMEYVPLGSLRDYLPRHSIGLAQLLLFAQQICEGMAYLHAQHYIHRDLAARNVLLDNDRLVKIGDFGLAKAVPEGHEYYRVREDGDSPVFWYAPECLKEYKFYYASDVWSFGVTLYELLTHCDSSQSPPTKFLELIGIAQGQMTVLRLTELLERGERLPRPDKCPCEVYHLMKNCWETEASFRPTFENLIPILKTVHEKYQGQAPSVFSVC

Row | pIC50 (Tyk2) | pIC50 [1] | pIC50 (JAK2) | Compound
1 | < 5.00 | 5.70 | < 5.00 | C=C(C)C(=O)Nc1cccc(Cn2ncc3cnc(Nc4cnn(C)c4)nc32)c1 [Example 5, N-(3-((6-((1-Methyl-1H-pyrazol-4-yl)amino)-1H-pyrazolo[3,4-d]pyrimidin-1-yl)methyl)phenyl)methacrylamide]
2 | < 5.00 | 6.42 | < 5.00 | C=CC(=O)Nc1cc(Cn2ncc3cnc(Nc4cnn(C)c4)nc32)ccc1F [Example 2, […]]
3 | 6.05 | 7.10 | < 5.00 | C=CS(=O)(=O)Nc1cccc(Cn2ccc3cnc(Nc4cnn(C)c4)nc32)c1 [Example 7, N-(3-((2-((1-Methyl-1H-pyrazol-4-yl)amino)-7H-pyrrolo[2,3-d]pyrimidin-7-yl)methyl)phenyl)ethenesulfonamide]

Second part, the molecule before the results:

Row | Compound | pIC50 (Tyk2) | pIC50 [1] | pIC50 (JAK2)
4 | C=CC(=O)Nc1cccc(Cn2ncc3cnc(Nc4cnn(C)c4)nc32)c1 [Example 1, N-(3-((6-((1-Methyl-1H-pyrazol-4-yl)amino)-1H-pyrazolo[3,4-d]pyrimidin-1-yl)methyl)phenyl)acrylamide] | < 5.00 | 7.51 | < 5.00
5 | C#CC(=O)Nc1cccc(Cn2ncc3cnc(Nc4cnn(C)c4)nc32)c1 [Example 3, N-(3-((6-((1-Methyl-1H-pyrazol-4-yl)amino)-1H-pyrazolo[3,4-d]pyrimidin-1-yl)methyl)phenyl)propiolamide] | 5.16 | 7.48 | < 5.00
6 | CC(=O)Nc1cccc(Cn2ncc3cnc(Nc4cnn(C)c4)nc32)c1 [compound 2, N-(3-((6-((1-methyl-1H-pyrazol-4-yl)amino)-1H-pyrazolo[3,4-d]pyrimidin-1-yl)methyl)phenyl)acetamide, reference compound] | < 5.00 | – | < 5.00
7 | C=CS(=O)(=O)Nc1cccc(Cn2ncc3cnc(Nc4cnn(C)c4)nc32)c1 [Example 4, N-(3-((6-((1-Methyl-1H-pyrazol-4-yl)amino)-1H-pyrazolo[3,4-d]pyrimidin-1-yl)methyl)phenyl)ethenesulfonamide] | 5.21 | 7.13 | < 5.00

Source: US20140323504A1, “Pyrazolo[4,3-c]Pyridine Derivatives As Kinase Inhibitors” (Cellzome Limited, priority 2011, published 2014)
